Some test systems named below: SR leukemia; EKVX NSCLC; RPMI-8226 leukemia; SF-295 CNS; HS 578T breast; NCI/ADR-RES ovarian; UACC-257 melanoma; SNB-19 CNS; UACC-62 melanoma; SK-OV-3 ovarian.
What all share (assay): DTP human tumour cell line panel, 48 h

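Briefly, cells in 96-well plates were exposed to five compound concentrations for 48 h, and endpoints were estimated by linear interpolation. TGI marks complete inhibition of growth.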

As to `CCN(CCCOc1ccccc1)CCN(CC)CCCOc1ccccc1`, the TGI in the assay on SR leukemia was 26.6 µM; in the assay on EKVX NSCLC it was 28.9 µM; in the assay on RPMI-8226 leukemia it was 10.4 µM; in the assay on SF-295 CNS, 41 µM; in the assay with HS 578T breast, 30.4 µM; in the assay on NCI/ADR-RES ovarian, 46.8 µM. In addition, the TGI stood at 31.5 µM in the assay with UACC-257 melanoma, 23.4 µM with SNB-19 CNS and 36.7 µM in the assay with UACC-62 melanoma.
As for `COC1CC(N)(c2ccccc2)C(O)C(C)O1` (stereo not given), the TGI with SK-OV-3 ovarian, in the assay on SR leukemia, with EKVX NSCLC, in the assay on RPMI-8226 leukemia, with SF-295 CNS and in the assay with HS 578T breast was above 100 µM each time. Besides, the TGI in the assay on NCI/ADR-RES ovarian, in the assay on UACC-257 melanoma, with SNB-19 CNS and in the assay with UACC-62 melanoma was above 100 µM each time.
Consider `CCc1n[nH]c(=O)n1CCCCCCCCCCCCn1c(CC)n[nH]c1=O`, for which the TGI with SK-OV-3 ovarian, with SR leukemia, in the assay on EKVX NSCLC, in the assay on RPMI-8226 leukemia, with SF-295 CNS and in the assay on HS 578T breast was above 100 µM each time. Moreover, the TGI in the assay on NCI/ADR-RES ovarian is above 100 µM; in the assay with UACC-257 melanoma it was 40.2 µM; with SNB-19 CNS it was above 100 µM; in the assay on UACC-62 melanoma it was 61.3 µM.
`Cc1ccc(Nc2nc3[nH]ccc3c(=O)[nH]2)cc1`: the TGI in the assay with SK-OV-3 ovarian, in the assay on SR leukemia, in the assay on EKVX NSCLC, with RPMI-8226 leukemia, in the assay on SF-295 CNS and in the assay on HS 578T breast was above 100 µM throughout. The TGI in the assay with NCI/ADR-RES ovarian, with UACC-257 melanoma, with SNB-19 CNS and with UACC-62 melanoma was above 100 µM each time.
As to `COc1cc2c(c(O)c1O)C(=O)C1CCC(=O)N1C2c1cccc2ccccc12` (stereo not given), the TGI in the assay with SK-OV-3 ovarian, in the assay with SR leukemia, in the assay with EKVX NSCLC, in the assay on RPMI-8226 leukemia, in the assay on SF-295 CNS and in the assay with HS 578T breast was above 50 µM throughout. Further, the TGI in the assay with NCI/ADR-RES ovarian, in the assay with UACC-257 melanoma, in the assay with SNB-19 CNS and in the assay on UACC-62 melanoma was above 50 µM each time.
For `c1ccc(/C(=N/Nc2nc3ccccc3s2)C2CCCCC2)nc1`, the TGI with SK-OV-3 ovarian is 18.7 µM; in the assay with SR leukemia it was 16.8 µM; in the assay with EKVX NSCLC it was 25.5 µM; in the assay on RPMI-8226 leukemia, 21.9 µM; with SF-295 CNS, 29.9 µM; with HS 578T breast, 50 µM. The TGI in the assay on NCI/ADR-RES ovarian was 10.3 µM; with UACC-257 melanoma it was 17.5 µM; in the assay with SNB-19 CNS, 30.6 µM; in the assay on UACC-62 melanoma, 31.3 µM.
On to `OC1[C@@H]2[C@@H](O)CCCN2C[C@@H](O)[C@H]1O` (stereo not given in full), for which the TGI in the assay with SK-OV-3 ovarian, with SR leukemia, in the assay on EKVX NSCLC, in the assay on RPMI-8226 leukemia, with SF-295 CNS and in the assay on HS 578T breast was above 100 µM each time. Besides, the TGI in the assay with NCI/ADR-RES ovarian, in the assay on UACC-257 melanoma, in the assay with SNB-19 CNS and in the assay on UACC-62 melanoma was above 100 µM each time.
Turning to `COC(=O)C1(NC(=O)C(CC(=O)OCc2ccccc2)NC(=O)OCc2ccccc2)CCCCCC1` (stereo not given), the TGI in the assay on SK-OV-3 ovarian is 94.6 µM; in the assay with SR leukemia, 87.4 µM; with EKVX NSCLC it was above 100 µM; with RPMI-8226 leukemia, 21.9 µM; in the assay on SF-295 CNS it was above 100 µM; with HS 578T breast it was above 100 µM. For the same compound, the TGI with NCI/ADR-RES ovarian was 82.5 µM; in the assay on SNB-19 CNS, above 100 µM; with UACC-62 melanoma it was 34.3 µM.
For the compound `COc1cc(C2c3c(ccc4ccccc34)C(=O)C3CCC(=O)N32)cc(OC)c1OC` (stereo not given), the TGI in the assay on SK-OV-3 ovarian, with SR leukemia, in the assay with EKVX NSCLC, in the assay with RPMI-8226 leukemia, with SF-295 CNS and in the assay on HS 578T breast was above 50 µM each time. The TGI in the assay with NCI/ADR-RES ovarian, in the assay on UACC-257 melanoma, in the assay on SNB-19 CNS and in the assay on UACC-62 melanoma was above 50 µM in each case.
As for `COc1cccc(N2C(=O)CSC2c2cccc(Oc3ccccc3)c2)c1` (stereo not given), the TGI with SK-OV-3 ovarian is above 100 µM; with SR leukemia, 17.6 µM; with EKVX NSCLC, 61.4 µM; with SF-295 CNS it was above 100 µM; in the assay on HS 578T breast it was 41.4 µM; in the assay with NCI/ADR-RES ovarian, 40.4 µM. The TGI in the assay on UACC-257 melanoma is 12.3 µM; with SNB-19 CNS, above 100 µM; in the assay with UACC-62 melanoma, 11.7 µM.
With `O=c1[nH]c2nc3ccccc3c(=O)n2/c1=C/c1ccc(Cl)cc1`, the TGI was above 100 µM with SK-OV-3 ovarian; above 100 µM with SR leukemia; above 100 µM in the assay on RPMI-8226 leukemia; above 100 µM in the assay on SF-295 CNS; 65.2 µM in the assay on HS 578T breast; above 100 µM in the assay with NCI/ADR-RES ovarian. Besides, the concentration for total growth inhibition (TGI) in the assay with UACC-257 melanoma was above 100 µM; in the assay with SNB-19 CNS, 79.8 µM; with UACC-62 melanoma it was above 100 µM.
Consider `O=C(Nc1ccccc1)N(C1=NCC(CI)S1)c1ccc(F)c(F)c1` (stereo not given), for which the TGI in the assay with SK-OV-3 ovarian, in the assay on SR leukemia, with EKVX NSCLC, in the assay with RPMI-8226 leukemia, in the assay with SF-295 CNS and with HS 578T breast was above 100 µM each time. The TGI in the assay on NCI/ADR-RES ovarian, in the assay on UACC-257 melanoma and with SNB-19 CNS was above 100 µM throughout.
With `O=C(Nc1ccccc1F)c1cc2ccc(O)cc2oc1=Nc1cccc(F)c1`, the TGI was above 100 µM in the assay on SK-OV-3 ovarian; 49.2 µM with SR leukemia; 35.2 µM with EKVX NSCLC; above 100 µM in the assay on RPMI-8226 leukemia; 18.5 µM in the assay on SF-295 CNS; 84.4 µM in the assay with HS 578T breast. For the same compound, the TGI is 43 µM in the assay with NCI/ADR-RES ovarian, 65.6 µM in the assay with UACC-257 melanoma, above 100 µM in the assay with SNB-19 CNS and 29.6 µM in the assay with UACC-62 melanoma.

One may read the TGI as the concentration at which net growth stops. Higher therefore signals lower sensitivity of the cells.
